Consider 26 molecules from EP2036556A1, “Piperidone derivatives and medical uses thereof” (Heinrich-Pette-Institut, priority 2007, dated 2009).

Experiment [1] deals with macrophage cell line J774.1. The experiment is described as follows: Macrophage assay (Alamar Blue cytotoxicity). In kind it is cell-based. The note with it: for EC50: J774.1 macrophages, after 48h, read-out: ED50 [µM] Macrophage after 48h. Here is the method:
The macrophage cell line J774.1 was maintained in complete Click RPMI medium. For the experimental procedures cells were detached from the flasks with a rubber police, washed twice with PBS and suspended at 2 x 10^6 cells mL^-1 in complete Click RPMI medium. […] Following the addition of 20 µl of Alamar Blue, the plates were further incubated at similar conditions. The plates were then read 24 and 48 h later. Control experiments to examine the effect of cell density, incubation time and DMSO concentration were performed. Absorbance in the absence of compounds was set as 100 % of growth control.
(In general: The colour change of resazurin is a common sign of viable cells or microbes.)

For experiment [2], the system named is T. brucei brucei laboratory strain TC 221. Kind of experiment: Trypanosome assay (in vitro cytotoxicity, Alamar Blue). In kind it is cell-based, Trypanosoma brucei brucei. Conditions: for activity against trypanosomes (in words): statement of the discussion. Here is the method: Parasite culture: Trypomastigote forms of T. brucei brucei laboratory strain TC 221 were cultured in Baltz medium according to standard conditions.^36 In vitro cytotoxicity assays: The test compounds were dissolved in DMSO or 0.1 M NaOH. A defined number of parasites (10^4 trypanosomes per mL) were exposed in test chambers of 96-well plates to various concentrations of the test substances in a final volume of 200 µl. Positive (trypanosomes in culture medium) and negative controls (test substance without trypanosomes) were run with each plate. The plates were then incubated at 37°C in an atmosphere of 5 % CO2 for a total time period of 72 h. […] The effect of test substances was quantified in ED50 values by linear interpolation^18 of three different measurements. The activity of the test substances was measured by light absorption in an MR 700 Microplate Reader at a wavelength of 550 nm with a reference wave length of 630 nm, using the Alamar Blue®.

The mark [3] stands for this setting: Trypanosoma brucei, strain TC 221, 10^4 trypanosomes per mL, incubated 72 h, reading at 48 h, Alamar Blue, read-out: ED50 [µM] T. brucei brucei.
The mark [4] stands for this setting: reference substances, for comparison (title of Table 1), read-out: ED50 (T. brucei brucei).
The mark [5] stands for this setting: strain TC 221, 10^4 trypanosomes per mL, incubated 72 h, reading at 48 h, Alamar Blue, read-out: ED50 [µM] T. brucei brucei.

Where two headings read alike, the source gives them in different places. Where only a bound is given, the exact number is not on record here.

For `COC(=O)C1=C(O)C[C@@H](c2ccccn2)N(Cc2ccc(OC)cc2)[C@H]1c1ccccn1` [Compound 22, Methyl (2'R,6'S)-4'-hydroxy-1'-(4-methoxybenzyl)-1',2',5',6'-tetrahydro-2,2';6',2''-terpyridine-3'-carboxylate], the values for the EC50 in experiment [1] (Mus musculus) and in experiment [2] (setting [3]) were 29.9 ± 0.33 µM and 0.43 ± 0.17 µM, respectively.
The matching figures for `COC(=O)C1C(=O)C(C(=O)OC)[C@H](c2cccc([N+](=O)[O-])c2)N(Cc2ccc(C)cc2)[C@@H]1c1cccc([N+](=O)[O-])c1` (stereo partly drawn) [Compound 16, Dimethyl (2R,6S)-1-(4-methylbenzyl)-2,6-bis(3-nitrophenyl)-4-oxopiperidine 3,5-dicarboxylate]: 49.8 ± 16.8 µM and 2.66 ± 0.49 µM.
On the same counts, the results for `COC(=O)C1C(=O)C(C(=O)OC)[C@H](c2ccccn2)N[C@@H]1c1ccccn1` (stereo partly drawn) [Compound 1, Dimethyl (2R,6S)-4-oxo-2,6-di(pyridin-2-yl)piperidine-3,5-dicarboxylate] are greater than 100 µM and 28.1 ± 1.52 µM.
On the same counts, the results for `COC(=O)C1C(=O)C(C(=O)OC)[C@H](c2ccccn2)N(CCCCCCCC(=O)O)[C@@H]1c1ccccn1` (stereo partly drawn) [Compound 7, 8-[(2R,6S)-3,5-bis(methoxycarbonyl)-4-oxo-2,6-di(pyridin-2-yl)piperidin-1-yl]octanoic acid] are 33.8 ± 2.81 µM and 24 ± 4.48 µM.
For the molecule `C=CCN1[C@H](c2ccccn2)C(C(=O)OC)C(=O)C(C(=O)OC)[C@@H]1c1ccccn1` (stereo partly drawn) [Compound 2, Dimethyl (2R,6S)-1-allyl-4-oxo-2,6-di(pyridin-2-yl)piperidine-3,5-dicarboxylate], the EC50 in experiment [1] (Mus musculus) was greater than 100 µM; in experiment [2] (setting [3]), 26.5 ± 7.64 µM.
In the case of `C=CCN1[C@H](c2ccccc2)C(C(=O)OC)C(=O)C(C(=O)OC)[C@@H]1c1ccccc1` (stereo partly drawn) [Compound 18, Dimethyl (2R,6S)-1-allyl-4-oxo-2,6-diphenylpiperidine-3,5-dicarboxylate], the EC50 in experiment [1] (Mus musculus) is greater than 100 µM; in experiment [2] (setting [3]), 4.86 ± 0.63 µM.
The matching figures for `COC(=O)C1C(=O)C(C(=O)OC)[C@H](c2cccc([N+](=O)[O-])c2)N(Cc2ccc(OC)cc2)[C@@H]1c1cccc([N+](=O)[O-])c1` (stereo partly drawn) [Compound 15, Dimethyl (2R,6S)-1-(4-methoxybenzyl)-2,6-bis(3-nitrophenyl)-4-oxopiperidine-3,5-dicarboxylate]: greater than 100 µM and 3.93 ± 1.1 µM.
As to `NCCCC(N)(C(=O)O)C(F)F` (stereo not shown) [Eflornitine, reference compound], in experiment [2] (setting [4]), the EC50 turned out to be 22.9 µM.
Consider `COC(=O)C1=C(O)C[C@@H](c2ccccn2)N(Cc2cccc(OC)c2)[C@H]1c1ccccn1` [Compound 23, Methyl (2'R,6'S)-4'-hydroxy-1'-(3-methoxybenzyl)-1',2',5',6'-tetrahydro-2,2';6',2''-terpyridine-3'-carboxylate], for which the EC50 in experiment [1] (Mus musculus) and in experiment [2] (setting [3]) was greater than 100 µM in each case.
With `COC(=O)C1C(=O)C(C(=O)OC)[C@H](c2ccccn2)N(CCCC(=O)O)[C@@H]1c1ccccn1` (stereo partly drawn) [Compound 6, 4-[(2R,6S)-3,5-bis(methoxycarbonyl)-4-oxo-2,6-di(pyridin-2-yl)piperldin-1-yl]butanoic acid], the EC50 in experiment [1] was 46 ± 5.92 µM; in experiment [2] (setting [5]), 19.3 ± 2.28 µM.
As to `CC(CN1CCC(=NOCc2c(Cl)cccc2Cl)CC1)c1ccccc1` (stereo not shown) [Compound 49, 1-(2-Phenylpropyl)-4-oxo-piperidine O-(2,6-dichloro-benzyl)-oxime], the EC50 in experiment [1] (Mus musculus) and in experiment [2] (setting [3]) was greater than 100 µM throughout. The “activity against trypanosomes (in words)” value in experiment [2] was “neither the oximes 48 and 52 nor the oxime ether 49 are active against trypanosomes”.
As for `COC(=O)C1C(=O)C(C(=O)OC)[C@H](c2cccc([N+](=O)[O-])c2)N(Cc2ccc(Cl)cc2)[C@@H]1c1cccc([N+](=O)[O-])c1` (stereo partly drawn) [Compound 14, Dimethyl (2R,6S)-1-(4-chlorobenzyl)-2,6-bis(3-nitrophenyl)-4-oxopiperidine-3,5-dicarboxylate], the EC50 in experiment [1] (Mus musculus) came to 46.6 ± 9.86 µM; in experiment [2] (setting [3]), 10.6 ± 2.83 µM.
The matching figures for `COC(=O)C1C(=O)C(C(=O)OC)[C@H](c2ccccn2)N(CCO)[C@@H]1c1ccccn1` (stereo partly drawn) [Compound 3, Dimethyl (2R,6S)-1-(2-hydroxyethyl)-4-oxo-2,6-di(pyridin-2-yl)piperidine-3,5-dicarboxylate]: 31.15 ± 0.14 µM and 22.8 ± 5.57 µM.
The matching figures for `COC(=O)C1C(=O)C(C(=O)OC)[C@H](c2ccccn2)N(Cc2ccccc2)[C@@H]1c1ccccn1` (stereo partly drawn) [Compound 9, Dimethyl (2R,6S)-1-benzyl-4-oxo-2,6-di(pyridin-2-yl)piperidine-3,5-dicarboxylate]: 34 ± 1.56 µM and 11.1 ± 1.91 µM.
As for `COC(=O)C1C(=O)C(C(=O)OC)[C@H](c2cccc([N+](=O)[O-])c2)N(Cc2ccccc2)[C@@H]1c1cccc([N+](=O)[O-])c1` (stereo partly drawn) [Compound 17, Dimethyl (2R,6S)-1-benzyl-2,6-bis(3-nitrophenyl)-4-oxopiperidine-3,5-dicarboxylate], the EC50 in experiment [1] (Mus musculus) was greater than 100 µM; in experiment [2] (setting [3]) it was 2.49 ± 0.79 µM.
On to `COC(=O)C1C(=O)C(C(=O)OC)[C@H](c2ccccn2)N(Cc2ccccn2)[C@@H]1c1ccccn1` (stereo partly drawn) [Compound 8, Dimethyl (2R,6S)-4-oxo-2,6-di(pyridine-2-yl)-1-(pyridine-2-yl-methyl)-piperidine-3,5-diearboxylate], for which the results for the EC50 in experiment [1] and in experiment [2] (setting [5]) were 29.9 ± 2.32 µM and 4.62 ± 1.39 µM, respectively.
In the case of `COC(=O)C1=C(O)C[C@@H](c2ccccn2)N(Cc2ccc(C)cc2)[C@H]1c1ccccn1` [Compound 20, Methyl (2'R,6'S)-4'-hydroxy-1'-(4-methylbenzyl)-1',2',5',6'-tetrahydro-2,2';6',2''-terpyridine-3'-carboxylate], the EC50 is 34.9 ± 0.45 µM in experiment [1] (Mus musculus) and 0.47 ± 0.17 µM in experiment [2] (setting [3]).
The term IC50 denotes the concentration that gives 50% inhibition. `C[C@@H]1[C@H](O)[C@@H](C)/C=C/C=C/C=C/C=C/C=C/C=C/C=C/[C@H](O[C@@H]2O[C@H](C)[C@@H](O)[C@H](N)[C@@H]2O)C[C@@H]2O[C@](O)(C[C@@H](O)C[C@@H](O)[C@H](O)CC[C@@H](O)C[C@@H](O)CC(=O)O[C@H]1C)C[C@H](O)[C@H]2C(=O)O` [Amphotericin B, reference compound]: in experiment [1] (reference substance, for comparison, read-out: IC50 (J774.1 Macrophages)), the IC50 was determined as 68.6 ± 16.5 µM.
Regarding `ON=C1CCN(CCCc2ccccc2)CC1` [Compound 48, 1-(3-Phenylpropyl)-4-piperidine oxime], the “activity against trypanosomes (in words)” value in experiment [2] was “neither the oximes 48 and 52 nor the oxime ether 49 are active against trypanosomes”.
On to `COC(=O)C1C(=O)C(C(=O)OC)[C@H](c2ccccn2)N(CC(C)O)[C@@H]1c1ccccn1` (stereo partly drawn) [Compound 4, Dimethyl (2R,6S)-1-(2-hydroxypropyl)-4-oxo-2,6-di(pyridin-2-yl)piperidine-3,5-dicarboxylate], for which the results for the EC50 in experiment [1] (Mus musculus) and in experiment [2] (setting [3]) were 32 ± 0.63 µM and 18.3 ± 2.59 µM, respectively.
With `C=CCN1[C@@H](c2ccc([N+](=O)[O-])cc2)C(C(=O)OC)=C(O)C(C(=O)OC)[C@@H]1c1ccc([N+](=O)[O-])cc1` (stereo partly drawn) [Compound 10, Dimethyl (2R,6S)-1-allyl-4-hydroxy-2,6-bis(4-nitrophenyl)-1,2,3,6-tetrahydropyridine-3,5-dicarboxylate], the EC50 in experiment [1] (Mus musculus) is 50.3 ± 11.7 µM; in experiment [2] (setting [3]), 2.41 ± 0.39 µM.
Consider `N=C(N)c1ccc(OCCCCCOc2ccc(C(=N)N)cc2)cc1` [Pentamidine diisothionate, reference compound], for which the EC50 in experiment [2] (setting [4]) was found to be 0.0027 µM.
As for `ON=CC1CCN(CCCc2ccccc2)CC1` [Compound 52, 1-1-(3-Phenyl-propyl)-piperidine-4-carbaldehyde oxime], the EC50 in experiment [1] and in experiment [2] (setting [5]) was greater than 100 µM each time. Further, in experiment [2], the “activity against trypanosomes (in words)” value is “neither the oximes 48 and 52 nor the oxime ether 49 are active against trypanosomes”.
With `Cc1ccc(C(=O)Nc2ccc(S(=O)(=O)O)c3cc(S(=O)(=O)O)cc(S(=O)(=O)O)c23)cc1NC(=O)c1cccc(NC(=O)Nc2cccc(C(=O)Nc3cc(C(=O)Nc4ccc(S(=O)(=O)O)c5cc(S(=O)(=O)O)cc(S(=O)(=O)O)c45)ccc3C)c2)c1` [Suramine, reference compound], in experiment [2] (Trypanosoma brucei, reference substances, for comparison (title of Table 1), read-out: ED50 (T. brucei brucei)), the EC50 was 0.3 µM.
On to `COC(=O)C1=C(O)C[C@@H](c2ccccn2)N(Cc2ccccc2)[C@H]1c1ccccn1` [Compound 19, Methyl (2'R,6'S)-1'-benzyl-4'-hydroxy-1',2',5',6'-tetrahydro-2,2';6',2''-terpyridine-3'-carboxylate], for which the EC50 came out at 33.2 ± 0.69 µM in experiment [1] (Mus musculus) and 1.37 ± 0.02 µM in experiment [2] (setting [3]).
`COC(=O)C1C(=O)C(C(=O)OC)[C@H](c2ccccn2)N(CCOCCO)[C@@H]1c1ccccn1` (stereo partly drawn) [Compound 5, Dimethyl (2R,6S)-1-[2-(2-hydroxyethoxy)ethyl]-4-oxo-2,6-di(pyridin-2-yl)piperidine-3,5-dicarboxylate]: the EC50 in experiment [1] (Mus musculus) turned out to be 38.5 ± 6.17 µM; in experiment [2] (setting [3]), 24.1 ± 4.27 µM.
